Test results reported in patent publication US12667545B2, “Lyophilized compositions of phenobarbital sodium salt” (Nivagen Pharmaceuticals, Inc., priority 2019, dated 2026).

Experiments:
[1] = cited from earlier work
[2] = X-Ray Powder Diffraction (XRPD); assay type: physicochemical; conditions: FIGS. 5A-5D
Protocol: X-Ray Powder Diffraction. With reference to FIGS. 5A-5D, XRPD was performed using the Rigaku Smart-Lab X-ray diffraction system configured for reflection Bragg-Brentano geometry using a line source X-ray beam. The X-ray source is a Cu Long Fine Focus tube that was operated at 40 kV and 44 mA. That source provides an incident beam profile at the sample that changes from a narrow line at high angles to a broad rectangle at low angles. Beam conditioning slits were used on the line X-ray source to ensure that the maximum beam size is less than 10 mm both along the line and normal to the line. The Bragg-Brentano geometry is a para-focusing geometry controlled by passive divergence and receiving slits with the sample itself acting as the focusing component for the optics. The inherent resolution of Bragg-Brentano geometry is governed in part by the diffractometer radius and the width of the receiving slit used. Typically, the Rigaku Smart-Lab is operated to give peak widths of 0.1° 2θ or less. The axial divergence of the X-ray beam is controlled by 5.0-degree Soller slits in both the incident and diffracted beam paths. […] The samples were analyzed from 2 to 40° 2θ using a continuous scan of 6° 2θ per minute with an effective step size of 0.02° 2θ.

SMILES	liver enzyme induction ([1]; Nayyar et al., 2012)	serum calcium and folate ([1]; patients treated with Pheneturide)	solid form by XRPD [2]
CCC(C(=O)NC(N)=O)c1ccccc1 (stereo not drawn) [Pheneturide, phenylethylacetylurea]	potent liver enzyme inducer	low levels	–
CCC1(c2ccccc2)C(=O)N=C([O-])NC1=O.[Na+] (stereo not drawn) [USP grade P API, sodium 5-ethyl-4,6-dioxo-5-phenyl-1H-pyrimidin-2-olate]	–	–	polymorphous
